Structures can show the parent of a compound that is named as a salt. Where two headings read alike, the source gives them in different places. Some results are limits rather than exact numbers.

For assay [1], the system named is L. major (FV1) promastigotes. Kind of assay: Antipromastigote resazurin assay, L. major (FV1) wild type. Type of assay: cell-based, Leishmania major. Background: The colour change of resazurin is a common sign of viable cells or microbes.
Assay [2] deals with T1, LmjIPCS (inositol phosphorylceramide synthase from L. major) (Leishmania major, UniProt E9AFX2).
T1 sequence (E9AFX2 1-338): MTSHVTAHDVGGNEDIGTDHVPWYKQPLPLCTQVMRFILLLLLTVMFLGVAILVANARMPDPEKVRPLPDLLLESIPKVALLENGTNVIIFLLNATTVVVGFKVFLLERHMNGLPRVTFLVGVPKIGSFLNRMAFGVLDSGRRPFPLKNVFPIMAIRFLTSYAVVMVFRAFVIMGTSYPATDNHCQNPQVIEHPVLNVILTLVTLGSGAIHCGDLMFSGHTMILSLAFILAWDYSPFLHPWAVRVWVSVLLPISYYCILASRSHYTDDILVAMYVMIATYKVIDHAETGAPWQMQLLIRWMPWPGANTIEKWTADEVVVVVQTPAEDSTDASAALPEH
The experiment in a line: biochemical. Format: biochemical. Set-up: inhibition: dose or concentration left out as unconfirmed. The following applies: for inhibition at 20000 µM: read-out: 20mM inhibition LmjIPCS; for inhibition: read-out: inhibition LmjIPCS.

[3] abbreviates: screening of NINDS set, sheet Screen 1.
Setting [4] is: NINDS set screen, single concentration printed as 20mM.

For the molecule `Fc1ccc(C(c2ccc(F)cc2)N2CCN(C/C=C/c3ccccc3)CC2)cc1` [flunarizine 7, flunarizine, reference compound], in assay [1], the “10mM inhibition L. major” value stood at 56% and the “ED50 vs L. major” value worked out at 1.73 mM. Take `CNCCCC12CCC(c3ccccc31)c1ccccc12` [MAPROTILINE]: the “10mM inhibition L. major” value in assay [1] was below 5%. Still for that read-out and setting: then `CC(C)NC[C@@H](O)COc1cccc2ccccc12` [DEXPROPRANOLOL], with below 5%. In the case of `CN(C)CCC=C1c2ccccc2COc2ccccc21` [doxepin 5, doxepin, reference compound], in assay [1], the “10mM inhibition L. major” value was found to be 44% and the “ED50 vs L. major” value came out at 30.00 mM. `CCN(CC)CCOc1ccc(C(=C(Cl)c2ccccc2)c2ccccc2)cc1` [clomiphene 4, clomiphene, reference compound]: in assay [1], the “10mM inhibition L. major” value is 65% and the “ED50 vs L. major” value is 6.57 mM.

For `CN1CCN(CCCN2c3ccccc3Sc3ccc(Cl)cc32)CC1` [prochlorperazine edisylate 11, prochlorperazine edisylate, reference compound], in assay [1], the “10mM inhibition L. major” value is on record as 11% and the “ED50 vs L. major” value is given as 12.90 mM. For `C[C@H]1C[C@H]2[C@@H]3CCC4=CC(=O)C=C[C@]4(C)[C@@]3(F)[C@@H](O)C[C@]2(C)[C@@]1(O)C(=O)CO` [BETAMETHASONE], the “20mM inhibition LmjIPCS” value in assay [2] is recorded as 45%. On the same count and under the same terms, then `CNC(Cc1c[nH]c2ccccc12)C(=O)O` (centres unmarked) [ABRINE (L)], with -1%. For `[H]/N=C(/N)NS(=O)(=O)c1ccc(N)cc1` [SULFAGUANIDINE], the inhibition – broadly, the drop in the measured response relative to a control, in per cent – at 20000 µM in assay [2] is -1.62%.

For the molecule `NC(=O)c1ccc[n+]([C@@H]2O[C@H](COP(=O)([O-])OP(=O)(O)OC[C@H]3O[C@@H](n4cnc5c(N)ncnc54)[C@H](OP(=O)(O)O)[C@@H]3O)[C@@H](O)[C@H]2O)c1`, the inhibition at 20000 µM in assay [2] stood at 7%. On the same count and under the same terms, then `Oc1ccc(Cl)cc1` [PARACHLOROPHENOL], with 12%.

On to `CC1(C)OC(=O)NC1=O` [DIMETHADIONE], for which the inhibition in assay [2] (setting [3]) came out at 6.6%. Consider `N#C/C(=C\c1cccc(O)c1)C(=O)O` [alpha-CYANO-3-HYDROXYCINNAMIC ACID], for which the inhibition at 20000 µM in assay [2] was 8%. Turning to `COc1ccc([C@@H]2Sc3ccccc3N(CCN(C)C)C(=O)[C@@H]2OC(C)=O)cc1` [DILTIAZEM], in assay [2], the inhibition is 14%. For `Cc1cccc(Nc2ccccc2C(=O)O)c1C` [MEFENAMIC ACID], the inhibition in assay [2] (NINDS set screen) is -9%. On to `O=C(CC(=O)c1ccccc1)c1ccccc1` [DIBENZOYLMETHANE], for which, in assay [2], the “20mM inhibition LmjIPCS” value is 44%. For the molecule `C=C(C)[C@@H]1[C@H]2OC(=O)[C@@H]1[C@]1(O)C[C@H]3O[C@]34C(=O)O[C@H]2[C@]14C` [PICROTOXININ], the inhibition at 20000 µM in assay [2] was determined as 13%.

Turning to `C[C@H](CS)C(=O)N1CCC[C@H]1C(=O)O` [CAPTOPRIL], the inhibition at 20000 µM in assay [2] amounted to 1.19%.

With `O=C1c2ccccc2C(=O)C1c1ccccc1` [PHENINDIONE], the inhibition in assay [2] (NINDS set screen) came out at 21%.

Take `COc1cc([C@@H]2c3cc4c(cc3[C@@H](O[C@@H]3O[C@@H]5CO[C@@H](c6cccs6)O[C@H]5[C@H](O)[C@H]3O)[C@H]3COC(=O)[C@H]23)OCO4)cc(OC)c1O` [TENIPOSIDE]: in assay [2], the inhibition was determined as 23%. In the case of `CC(=O)OCC(=O)[C@@]12OC3(CCCC3)O[C@@H]1C[C@H]1[C@@H]3CCC4=CC(=O)C=C[C@]4(C)[C@@]3(F)[C@@H](O)C[C@@]12C` [AMCINONIDE], in assay [2], the inhibition at 20000 µM was 11%. In the case of `CO[C@H]1C[C@H](O[C@H]2[C@H](C)[C@@H](O[C@@H]3O[C@H](C)C[C@H](N(C)C)[C@H]3OC(C)=O)[C@@H](C)C[C@@]3(CO3)C(=O)[C@H](C)[C@@H](OC(C)=O)[C@@H](C)[C@@H](C)OC(=O)[C@@H]2C)O[C@@H](C)[C@@H]1OC(C)=O` [TROLEANDOMYCIN], in assay [2], the inhibition came to 18%. Regarding `C[n+]1ccccc1/C=N/O` [PRALIDOXIME MESYLATE], the inhibition at 20000 µM in assay [2] stood at 9%. `CCN(CC)CCCC(C)Nc1ccnc2cc(Cl)ccc12` (centres unmarked) [CHLOROQUINE]: the “20mM inhibition LmjIPCS” value in assay [2] is reported as 38%. On to `O=C(O)c1cc(O)c2c(c1)C(=O)c1cc(O)cc(O)c1C2=O` [EMODIC ACID], for which the inhibition in assay [2] (NINDS set screen) was 14%.

As to `CCCCCC(C)N` (centres unmarked) [TUAMINOHEPTANE], the inhibition at 20000 µM in assay [2] is 26%. Regarding `COc1cc(OC)c2ccc(=O)oc2c1` [CITROPTEN], the inhibition in assay [2] (setting [3]) stood at 2.18%.

Regarding `C[C@]12C=CC(=O)C=C1CC[C@@H]1[C@@H]2C(=O)C[C@@]2(C)[C@H]1CC[C@]2(O)C(=O)CO` [PREDNISONE], the inhibition in assay [2] was -4%. On the same count and under the same terms, then `Cc1cc2nc3c(=O)[nH]c(=O)nc-3n(C[C@H](O)[C@H](O)[C@H](O)CO)c2cc1C` [RIBOFLAVIN], with 2.26%.

Consider `O=C(CCCN1CC=C(n2c(=O)[nH]c3ccccc32)CC1)c1ccc(F)cc1` [DROPERIDOL], for which the “20mM inhibition LmjIPCS” value in assay [2] is 56%.

As to `COc1ccc(CCC(=O)c2c(O)cc(O[C@@H]3O[C@H](CO)[C@@H](O)[C@H](O)[C@H]3O[C@@H]3O[C@@H](C)[C@H](O)[C@@H](O)[C@H]3O)cc2O)cc1O` [NEOHESPERIDIN DIHYDROCHALCONE], the “20mM inhibition LmjIPCS” value in assay [2] (NINDS set screen, compound at 20mM (so in the source)) was found to be 15%. With `CCCCNc1ccc(C(=O)OCCN(C)C)cc1` [TETRACAINE], the inhibition in assay [2] (NINDS set screen) came out at 18%. For `CC[C@@H](CO)NC(=O)[C@@H]1C=C2c3cccc4[nH]cc(c34)C[C@H]2N(C)C1` [METHYLERGONOVINE], the “20mM inhibition LmjIPCS” value in assay [2] came to 35%. As for `CCN(CC)CCNC(=O)c1cc(Br)c(N)cc1OC` [BROMOPRIDE], in assay [2], the inhibition turned out to be 17%. Regarding `CSCC[C@H](NC=O)C(=O)N[C@@H](CC(C)C)C(=O)N[C@@H](Cc1ccccc1)C(=O)O`, the inhibition at 20000 µM in assay [2] was found to be 19%. Turning to `CCOc1nc2cccc(C(=O)OC(C)OC(=O)OC3CCCCC3)c2n1Cc1ccc(-c2ccccc2-c2nn[nH]n2)cc1` (centres unmarked) [CANDESARTAN CILEXTIL], in assay [2], the “20mM inhibition LmjIPCS” value worked out at 11%.

In the case of `NCCCCNCCCN` [SPERMIDINE], the inhibition at 20000 µM in assay [2] was 12%. `CN(CCOc1ccc(CC2SC(=O)NC2=O)cc1)c1ccccn1` (centres unmarked) [ROSIGLITAZONE]: the inhibition in assay [2] (setting [3]) came to 2.64%. Turning to `Nc1ccc(S(=O)(=O)Nc2ccccn2)cc1` [SULFAPYRIDINE], in assay [2], the inhibition at 20000 µM is -1.38%. The same measure, in the same setting: then `O=C1C(Cl)=C(Cl)C(=O)C(Cl)=C1Cl` [CHLORANIL], with 19%.

For `NS(=O)(=O)c1cc2c(cc1Cl)N=C(CSCc1ccccc1)NS2(=O)=O` [BENZTHIAZIDE], the “20mM inhibition LmjIPCS” value in assay [2] (setting [4]) was 36%. Consider `CCCCC(=O)O[C@H]1CC[C@H]2[C@@H]3CCc4cc(O)ccc4[C@H]3CC[C@]12C` [ESTRADIOL VALERATE], for which the “20mM inhibition LmjIPCS” value in assay [2] is 66%. Still for that read-out and setting: the result for `COc1ccc2c(c1)CC[C@@H]1[C@@H]2CC[C@]2(C)[C@@H](O)CC[C@@H]12` [ESTRADIOL METHYL ETHER] reads 40%. In the case of `N[C@@H](C(=O)N[C@@H]1C(=O)N2C(C(=O)O)=C(Cl)CS[C@H]12)c1ccccc1` [CEFACLOR], in assay [2], the inhibition is 10%. As to `CC1=CC(=O)c2ccccc2C1=O` [MENADIONE], the “20mM inhibition LmjIPCS” value in assay [2] was 43%. For the molecule `c1ccc2c(c1)CCCC2C1=NCCN1` (centres unmarked) [TETRAHYDROZOLINE], the inhibition at 20000 µM in assay [2] turned out to be 8%. On the same count and under the same terms, the result for `C[C@@H]1O[C@@H](Oc2c(-c3ccc(O)c(O)c3)oc3cc(O)cc(O)c3c2=O)[C@H](O)[C@H](O)[C@H]1O` [QUERCITRIN] reads 6.42%. Take `CCCCCCCCCCC[C@@H](C[C@@H]1OC(=O)[C@H]1CCCCCC)OC(=O)[C@H](CC(C)C)NC=O` [ORLISTAT]: the “20mM inhibition LmjIPCS” value in assay [2] is 66%. In the case of `NS(=O)(=O)c1cc2c(cc1C(F)(F)F)NCNS2(=O)=O` [HYDROFLUMETHIAZIDE], in assay [2], the inhibition at 20000 µM was found to be 9%. For the molecule `CN(C)C(=O)Oc1ccc[n+](C)c1` [PYRIDOSTIGMINE BROMIDE], the inhibition at 20000 µM in assay [2] is -5.55%. As for `C=C(C)[C@@H]1CC=C(CO)CC1` [PERILLYL ALCOHOL], the inhibition at 20000 µM in assay [2] worked out at 11%. Same read-out and setting: then `CC[C@@]1([C@@H]2O[C@@H]([C@H]3O[C@@](O)(CO)[C@H](C)C[C@@H]3C)C[C@@H]2C)CC[C@H]([C@]2(C)CC[C@]3(C[C@H](O)[C@@H](C)[C@@H]([C@@H](C)[C@@H](OC)[C@H](C)C(=O)O)O3)O2)O1` [MONENSIN], with 0.265%. Take `CCCC(C(=O)OCCN(CC)CC)(c1ccccc1)c1ccccc1` [PROADIFEN]: the “20mM inhibition LmjIPCS” value in assay [2] (setting [4]) is on record as 36%. On to `CC(C[N+](C)(C)C)OC(N)=O` (centres unmarked) [BETHANECHOL], for which the “20mM inhibition LmjIPCS” value in assay [2] turned out to be 53%.

On to `CCCCCCNC(=O)n1cc(F)c(=O)[nH]c1=O` [CARMOFUR], for which the inhibition at 20000 µM in assay [2] is 14%. On the same count and under the same terms, the result for `CO[C@@H]1C[C@@H](C[C@H]2CC[C@H](C)[C@H]([C@@H](C)C(=O)O)O2)O[C@]2(O[C@](C)([C@H]3CC[C@@](C)([C@@H]4O[C@@H]([C@H]5O[C@@](O)(CO)[C@H](C)C[C@@H]5C)C[C@@H]4C)O3)C[C@H]2C)[C@@H]1C` [NIGERICIN] reads -7.41%; that for `CC1(C)NC(=O)N(c2ccc([N+](=O)[O-])c(C(F)(F)F)c2)C1=O` [NILUTAMIDE], 4%. On to `CN1CCCN=C1COC(=O)C(O)(c1ccccc1)C1CCCCC1` (centres unmarked) [OXYPHENCYCLIMINE], for which, in assay [2], the “20mM inhibition LmjIPCS” value is recorded as 53%. As to `Cc1cccc(Nc2ccncc2S(=O)(=O)NC(=O)NC(C)C)c1` [TORSEMIDE], the inhibition at 20000 µM in assay [2] amounted to 29%. With `COC(=O)C1=C(C)NC(C)=C(C(=O)OCCN(C)Cc2ccccc2)C1c1cccc([N+](=O)[O-])c1` (centres unmarked) [NICARDIPINE], the inhibition in assay [2] is -15%. Consider `C[C@@H](N)[C@@H](O)c1ccccc1` [1S,2R-PHENYLPROPANOLAMINE], for which the “20mM inhibition LmjIPCS” value in assay [2] is 19%.

The values above are taken from publication PMC7802075 (ACS Infectious Diseases, 2020).
